Laboratory results published in patent publication US7829665B2 (priority 2005, dated 2010).
Like-named read-outs stand apart in the source and are kept apart here.

Experiments:
[1] = from C=CCCCCC[C@H](NC(=O)OC(C)(C)C)C(=O)N1CCC[C@H]1C(=O)N[C@]1(C(=O)OCC)C[C@H]1C=C; rcm bond; Hoveyda 1st generation catalyst; 1,2-dichloroethane; 10.0 mM; 50.0 °C; 16.0 h
[2] = target: T1, full-length NS3/NS4A-2 (HCV NS3 protease) (Hepatitis C virus genotype 1a, UniProt P27958); assay: NS3-NS4 protease assay / NS3 inhibition assay (RETS1 substrate, fluorescence kinetic read); format: biochemical; details: recombinant E. coli or Baculovirus full-length NS3 with NS4A-2; read-out: NS3-NS4 IC50
T1 construct: Recombinant E. coli or Baculovirus full-length NS3 was diluted to 3.33 μM with assay buffer; made in house; host or cells: E. coli or baculovirus (BV) expression system
T1 sequence (P27958 1027-1657): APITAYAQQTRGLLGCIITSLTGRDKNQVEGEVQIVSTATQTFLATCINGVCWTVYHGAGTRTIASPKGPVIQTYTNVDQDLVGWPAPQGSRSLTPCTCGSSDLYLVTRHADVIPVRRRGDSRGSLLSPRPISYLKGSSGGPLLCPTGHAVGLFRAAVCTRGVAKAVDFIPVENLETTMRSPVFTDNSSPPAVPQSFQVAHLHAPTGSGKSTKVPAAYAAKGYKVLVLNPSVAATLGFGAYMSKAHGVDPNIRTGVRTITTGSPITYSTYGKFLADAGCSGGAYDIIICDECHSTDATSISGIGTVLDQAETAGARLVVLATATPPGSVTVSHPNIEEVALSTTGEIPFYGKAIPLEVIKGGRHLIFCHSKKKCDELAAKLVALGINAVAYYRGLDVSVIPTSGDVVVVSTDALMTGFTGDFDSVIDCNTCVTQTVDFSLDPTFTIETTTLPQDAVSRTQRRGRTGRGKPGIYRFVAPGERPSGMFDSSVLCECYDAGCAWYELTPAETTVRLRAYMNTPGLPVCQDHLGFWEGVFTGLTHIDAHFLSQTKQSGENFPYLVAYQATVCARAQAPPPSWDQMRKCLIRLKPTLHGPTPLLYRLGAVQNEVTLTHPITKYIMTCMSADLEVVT
In short: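 Full-length NS3 from E. coli (2 nM in assay) or baculovirus (3 nM) was precomplexed with excess NS4A-2 peptide, then preincubated 10 min at room temperature with serially diluted compounds starting at 50 microM. Reaction was started with RETS1 substrate at 8 μM before addition and read kinetically for 30 min (ex 335/em 495 nm). Four-parameter IC50s were converted to Ki by Cheng-Prusoff using Km 2.03 μM (E. coli) or 1.74 μM (BV).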

[3] = system: HCV sub-genomic replicon in GS4.3 cells (HuH-7 hepatoma cells); assay: Quantitation by ELISA of Neomycin phosphotransferase II (NPTII) in the HCV sub-genomic replicon, GS4.3; format: cell-based, hepatitis C virus
In short: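 HuH-7 GS4.3 cells carrying HCV sub-genomic replicon 1377/NS3-3′, treated 72 h at 37 °C without G418 with 3-fold dilutions from 10 μM to 56 pM (1% DMSO). NPTII in cell lysates measured by direct ELISA with TMB readout at 450 nm. EC50 from 4-parameter fit of percent DMSO-control signal.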

[4] = Hepatitis C virus, Huh-7, GS4.3 cells, 72 h incubation, NPTII ELISA, read-out: Replicon EC50
[5] = Hepatitis C virus, Huh-7, Table 26, read-out: EC50

CCOC(=O)[C@@]12C[C@H]1C=CCCCCC[C@H](NC(=O)OC(C)(C)C)C(=O)N1CCC[C@H]1C(=O)N2
ring closure, yield of all isomers [1]: 76%

O=C(N[C@H]1CCCCC/C=C\[C@@H]2C[C@@]2(C(=O)NS(=O)(=O)C2CC2)NC(=O)[C@H]2Cc3cc(Oc4cccc(Cl)c4)ccc3CN2C1=O)OC1CCCC1 [Compound 2005, Cyclopentyl (1aS,9S,17aR,19aR,Z)-15-(3-chlorophenoxy)-19a-(cyclopropylsulfonylcarbamoyl)-10,18-dioxo-1a,4,5,6,7,8,9,10,12,17,17a,18,19,19a-tetradecahydro-1H-11,14-diaza-bicyclo[13.1.0]hexadeca-1(15), 2-dieno[11,12-b]isoquinolin-9-ylcarbamate]
IC50 [2]: < 0.1 µM | EC50 [3, 4]: < 1 µM

CC(C)(C)OC(=O)N[C@H]1CCCCC/C=C\[C@@H]2C[C@@]2(C(=O)NS(=O)(=O)C2CC2)NC(=O)C2Cc3cc(Oc4cccc(Cl)c4)ccc3CN2C1=O (stereo partly drawn) [Compound 2007, tert-Butyl (1aS,9S,19aR,Z)-15-(3-chlorophenoxy)-19a-(cyclopropylsulfonylcarbamoyl)-10,18-dioxo-1a,4,5,6,7,8,9,10,12,17,17a,18,19,19a-tetradecahydro-1H-11,14-diaza-bicyclo[13.1.0]hexadeca-1(15), 2-dieno[11,12-b]isoquinolin-9-ylcarbamate]
IC50 [2]: < 1 µM | EC50 [3, 4]: < 10 µM

CC(C)(C)OC(=O)N[C@H]1CCCCC/C=C\[C@@H]2C[C@@]2(C(=O)NS(=O)(=O)C2CC2)NC(=O)C2Cc3cc(Oc4cccc(C(F)(F)F)c4)ccc3CN2C1=O (stereo partly drawn) [Compound 2008, tert-Butyl (1aS,9S,19aR,Z)-19a-(cyclopropylsulfonylcarbamoyl)-10,18-dioxo-15-(3-(trifluoromethyl)phenoxy)-1a,4,5,6,7,8,9,10,12,17,17a,18,19,19a-tetradecahydro-1H-1,14-diaza-bicyclo[13.1.0]hexadeca-1(15), 2-dieno[11,12-b]isoquinolin-9-ylcarbamate]
IC50 [2]: < 1 µM | EC50 [3, 4]: < 10 µM

COc1ccc(CC(=O)N[C@H]2CCCCC/C=C\[C@@H]3C[C@@]3(C(=O)NS(=O)(=O)C3CC3)NC(=O)[C@@H]3CCCN3C2=O)cc1 [Compound 2138, (1S,4R,6S,14S)N—((Z)-4-Cyclopropanesulfonylaminocarbonyl-2,15-dioxo-3,16-diaza-tricyclo[14.3.0.0^4,6]nonadec-7-ene-14-yl)-2-(4-methoxy-phenyl)-acetamide]
IC50 [2]: > 10 µM | EC50 [3, 5]: < 1 µM

O=C(Cc1ccc(C(F)(F)F)cc1)N[C@H]1CCCCC/C=C\[C@@H]2C[C@@]2(C(=O)NS(=O)(=O)C2CC2)NC(=O)C2CCCN2C1=O (some centres unmarked) [Compound 2142]
IC50 [2]: < 10 µM | EC50 [3, 5]: > 10 µM

O=C(Cc1ccc(Cl)cc1)N[C@H]1CCCCC/C=C\[C@@H]2C[C@@]2(C(=O)NS(=O)(=O)C2CC2)NC(=O)C2CCCN2C1=O (some centres unmarked) [Compound 2143]
IC50 [2]: > 10 µM | EC50 [3, 5]: > 10 µM

O=C(Cc1ccccc1)N[C@H]1CCCCC/C=C\[C@@H]2C[C@@]2(C(=O)NS(=O)(=O)C2CC2)NC(=O)C2CCCN2C1=O (some centres unmarked) [Compound 2144]
IC50 [2]: > 10 µM | EC50 [3, 5]: < 1 µM

(1S,4R,6S,14S) tert-butyl 4-Cyclopropanesulfonylaminocarbonyl-2,15-dioxo-3,16-diaza-tricyclo[14.3.0.0^4,6]nonadec-7-ene-14-yl carbamate [Compound 2137]
IC50 [2]: > 10 µM | EC50 ([3]; Table 26, read-out: EC50): > 10 µM
